Results taken from the supplement of paper PMC10307832.

Key:
Experiment in all cases: relative viability (nuclei count vs DMSO), 5 days (fraction); higher = more cells survive
BEN = tested on: BEN
How it was run: (§1)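 Values are medians from duplicate plates. Each reflects relative viability, defined as the nuclei count of treated wells over that of vehicle wells. Lung cancer cell lines in 1536-well plates were pin-tool dosed one day after seeding with one drug alone or with a fixed anchor-drug dose plus five library-drug doses (not always all listed) in √10 steps, then fixed, stained and imaged at 4× after 5 days.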

CAL-12T = tested on: CAL-12T
How it was run: as §1

COR-L23 = tested on: COR-L23
How it was run: as §1

HCC-44 = tested on: HCC-44
How it was run: as §1

LU99A = tested on: LU99A
How it was run: as §1

LXF-289 = tested on: LXF-289
How it was run: as §1

NCI-H1355 = tested on: NCI-H1355
How it was run: as §1

NCI-H1437 = tested on: NCI-H1437
How it was run: as §1

NCI-H1563 = tested on: NCI-H1563
How it was run: as §1

NCI-H1650 = tested on: NCI-H1650
How it was run: as §1

NCI-H1651 = tested on: NCI-H1651
How it was run: as §1

NCI-H1666 = tested on: NCI-H1666
How it was run: as §1

NCI-H1755 = tested on: NCI-H1755
How it was run: as §1

NCI-H1792 = tested on: NCI-H1792
How it was run: as §1

NCI-H1993 = tested on: NCI-H1993
How it was run: as §1

NCI-H2085 = tested on: NCI-H2085
How it was run: as §1

NCI-H2087 = tested on: NCI-H2087
How it was run: as §1

NCI-H2170 = tested on: NCI-H2170
How it was run: as §1

NCI-H460 = tested on: NCI-H460
How it was run: as §1

NCI-H520 = tested on: NCI-H520
How it was run: as §1

PC-14 = tested on: PC-14
How it was run: as §1

SK-MES-1 = tested on: SK-MES-1
How it was run: as §1

In the case of `CCNC(=O)c1noc(-c2cc(C(C)C)c(O)cc2O)c1-c1ccc(CN2CCOCC2)cc1` [Luminespib] + CS(=O)(=O)CCNCc1ccc(-c2ccc3ncnc(Nc4ccc(OCc5cccc(F)c5)c(Cl)c4)c3c2)o1 [Lapatinib] (partner 2 µM), the relative viability (BEN; first compound 0.002 µM) is reported as 0.717, the relative viability (BEN; first compound 0.006325 µM) is reported as 0.536 and the relative viability (BEN; first compound 0.02 µM) is reported as 0.363. For the same compound, the relative viability (BEN; first compound 0.06325 µM) was 0.211, the relative viability (BEN; first compound 0.2 µM) was 0.237 and the relative viability (CAL-12T; first compound 0.002 µM) was 0.596. It also gave a relative viability (CAL-12T; first compound 0.006325 µM) of 0.644, a relative viability (CAL-12T; first compound 0.02 µM) of 0.309 and a relative viability (CAL-12T; first compound 0.06325 µM) of 0.183. It also gave a relative viability (CAL-12T; first compound 0.2 µM) of 0.158, a relative viability (COR-L23; first compound 0.002 µM) of 1.22 and a relative viability (COR-L23; first compound 0.006325 µM) of 0.945. For the same compound, the relative viability (COR-L23; first compound 0.02 µM) was 0.924, the relative viability (COR-L23; first compound 0.06325 µM) was 0.0749 and the relative viability (COR-L23; first compound 0.2 µM) was 0.0671. The relative viability (HCC-44; first compound 0.002 µM) was 0.975, the relative viability (HCC-44; first compound 0.006325 µM) was 1.08 and the relative viability (HCC-44; first compound 0.02 µM) was 1.18. For the same compound, the relative viability (HCC-44; first compound 0.06325 µM) was 0.161, the relative viability (HCC-44; first compound 0.2 µM) was 0.159 and the relative viability (LU99A; first compound 0.002 µM) was 1.11. The relative viability (LU99A; first compound 0.006325 µM) was 0.939, the relative viability (LU99A; first compound 0.02 µM) was 0.518 and the relative viability (LU99A; first compound 0.06325 µM) was 0.127. It also gave a relative viability (LU99A; first compound 0.2 µM) of 0.11, a relative viability (LXF-289; first compound 0.002 µM) of 0.905 and a relative viability (LXF-289; first compound 0.006325 µM) of 0.877. The relative viability (LXF-289; first compound 0.02 µM) was 1.02, the relative viability (LXF-289; first compound 0.06325 µM) was 0.554 and the relative viability (LXF-289; first compound 0.2 µM) was 0.115. It also gave a relative viability (NCI-H1355; first compound 0.002 µM) of 0.891, a relative viability (NCI-H1355; first compound 0.006325 µM) of 1.02 and a relative viability (NCI-H1355; first compound 0.02 µM) of 0.461. For the same compound, the relative viability (NCI-H1355; first compound 0.06325 µM) was 0.664, the relative viability (NCI-H1355; first compound 0.2 µM) was 0.153 and the relative viability (NCI-H1437; first compound 0.002 µM) was 0.819. It also gave a relative viability (NCI-H1437; first compound 0.006325 µM) of 0.748, a relative viability (NCI-H1437; first compound 0.02 µM) of 0.703 and a relative viability (NCI-H1437; first compound 0.06325 µM) of 0.243. For the same compound, the relative viability (NCI-H1437; first compound 0.2 µM) was 0.102, the relative viability (NCI-H1563; first compound 0.002 µM) was 0.963 and the relative viability (NCI-H1563; first compound 0.006325 µM) was 0.818. It also gave a relative viability (NCI-H1563; first compound 0.02 µM) of 0.616, a relative viability (NCI-H1563; first compound 0.06325 µM) of 0.474 and a relative viability (NCI-H1563; first compound 0.2 µM) of 0.528. For the same compound, the relative viability (NCI-H1650; first compound 0.002 µM) was 0.761, the relative viability (NCI-H1650; first compound 0.006325 µM) was 0.642 and the relative viability (NCI-H1650; first compound 0.02 µM) was 0.177. It also gave a relative viability (NCI-H1650; first compound 0.06325 µM) of 0.145, a relative viability (NCI-H1650; first compound 0.2 µM) of 0.176 and a relative viability (NCI-H1651; first compound 0.002 µM) of 0.902. The relative viability (NCI-H1651; first compound 0.006325 µM) was 0.803, the relative viability (NCI-H1651; first compound 0.02 µM) was 0.561 and the relative viability (NCI-H1651; first compound 0.06325 µM) was 0.193. It also gave a relative viability (NCI-H1651; first compound 0.2 µM) of 0.161, a relative viability (NCI-H1666; first compound 0.002 µM) of 0.717 and a relative viability (NCI-H1666; first compound 0.006325 µM) of 0.709. It also gave a relative viability (NCI-H1666; first compound 0.02 µM) of 0.585, a relative viability (NCI-H1666; first compound 0.06325 µM) of 0.718 and a relative viability (NCI-H1666; first compound 0.2 µM) of 0.533. The relative viability (NCI-H1755; first compound 0.002 µM) was 1.09, the relative viability (NCI-H1755; first compound 0.006325 µM) was 0.97 and the relative viability (NCI-H1755; first compound 0.02 µM) was 1.07. The relative viability (NCI-H1755; first compound 0.06325 µM) was 0.502, the relative viability (NCI-H1755; first compound 0.2 µM) was 0.176 and the relative viability (NCI-H1792; first compound 0.002 µM) was 0.855. The relative viability (NCI-H1792; first compound 0.006325 µM) was 0.778, the relative viability (NCI-H1792; first compound 0.02 µM) was 0.717 and the relative viability (NCI-H1792; first compound 0.06325 µM) was 0.474. The relative viability (NCI-H1792; first compound 0.2 µM) was 0.587, the relative viability (NCI-H1993; first compound 0.002 µM) was 0.874 and the relative viability (NCI-H1993; first compound 0.006325 µM) was 0.864. The relative viability (NCI-H1993; first compound 0.02 µM) was 0.654, the relative viability (NCI-H1993; first compound 0.06325 µM) was 0.491 and the relative viability (NCI-H1993; first compound 0.2 µM) was 0.418. The relative viability (NCI-H2085; first compound 0.002 µM) was 0.854, the relative viability (NCI-H2085; first compound 0.006325 µM) was 0.793 and the relative viability (NCI-H2085; first compound 0.02 µM) was 0.482. The relative viability (NCI-H2085; first compound 0.06325 µM) was 0.373, the relative viability (NCI-H2085; first compound 0.2 µM) was 0.284 and the relative viability (NCI-H2087; first compound 0.002 µM) was 1.11. The relative viability (NCI-H2087; first compound 0.006325 µM) was 0.954, the relative viability (NCI-H2087; first compound 0.02 µM) was 0.726 and the relative viability (NCI-H2087; first compound 0.06325 µM) was 0.202. It also gave a relative viability (NCI-H2087; first compound 0.2 µM) of 0.174, a relative viability (NCI-H2170; first compound 0.002 µM) of 0.254 and a relative viability (NCI-H2170; first compound 0.006325 µM) of 0.28. The relative viability (NCI-H2170; first compound 0.02 µM) was 0.248, the relative viability (NCI-H2170; first compound 0.06325 µM) was 0.291 and the relative viability (NCI-H2170; first compound 0.2 µM) was 0.203. For the same compound, the relative viability (NCI-H460; first compound 0.002 µM) was 1.11, the relative viability (NCI-H460; first compound 0.006325 µM) was 0.871 and the relative viability (NCI-H460; first compound 0.02 µM) was 0.0465. For the same compound, the relative viability (NCI-H460; first compound 0.06325 µM) was 0.0095, the relative viability (NCI-H460; first compound 0.2 µM) was 0.0127 and the relative viability (NCI-H520; first compound 0.002 µM) was 0.848. It also gave a relative viability (NCI-H520; first compound 0.006325 µM) of 0.792, a relative viability (NCI-H520; first compound 0.02 µM) of 0.353 and a relative viability (NCI-H520; first compound 0.06325 µM) of 0.11. For the same compound, the relative viability (NCI-H520; first compound 0.2 µM) was 0.138, the relative viability (PC-14; first compound 0.002 µM) was 0.383 and the relative viability (PC-14; first compound 0.006325 µM) was 0.267. The relative viability (PC-14; first compound 0.02 µM) was 0.247, the relative viability (PC-14; first compound 0.06325 µM) was 0.138 and the relative viability (PC-14; first compound 0.2 µM) was 0.116. The relative viability (SK-MES-1; first compound 0.002 µM) was 0.461, the relative viability (SK-MES-1; first compound 0.006325 µM) was 0.459 and the relative viability (SK-MES-1; first compound 0.02 µM) was 0.407. It also gave a relative viability (SK-MES-1; first compound 0.06325 µM) of 0.265 and a relative viability (SK-MES-1; first compound 0.2 µM) of 0.159.
